Source: patent US9523100B2, “Pesticidal compositions and related methods” (DOW AGROSCIENCES LLC, priority 2013, dated 2016)
Like-named read-outs stand apart in the source and are kept apart here.

Legend:
[1] = system: Green Peach Aphid (GPA) (Myzus persicae) (MYZUPE); assay: Bioassay for Green Peach Aphid (GPA), foliar spray on cabbage seedlings; format: in vivo; conditions: 72 h, read-out: GPA 200 ppm, % Control (or Mortality) rating
Procedure, shortened: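 Foliar spray test: 200 ppm solutions (0.025% Tween 20 in water, 20% acetone/methanol) applied to both leaf sides of aphid-infested cabbage seedlings. After 3 days at about 25° C, live aphids per plant were counted; control corrected to solvent check via Abbott's formula.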

[2] = system: Sweetpotato Whitefly-Crawler (WF) (Bemisia tabaci) (BEMITA); assay: Insecticidal test for Sweetpotato Whitefly-Crawler (WF) in foliar spray assay on cotton plants; format: in vivo; conditions: 216 h, read-out: WF 200 ppm, % Control (or Mortality) rating
Procedure, shortened: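 Whitefly nymph control on egg-infested cotton (eggs laid 4–5 days pre-treatment), foliar spray at 200 ppm test compound. Live late-stage nymphs counted microscopically 9 days later at ~25 °C; control calculated by Abbott's formula relative to acetone-diluent-sprayed plants.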

[3] = 200 ppm foliar spray on cabbage seedlings, graded after three days, Abbott corrected % control
[4] = 200 ppm foliar spray on cotton plants, graded after 9 days, Abbott corrected % control

Structure (SMILES): CCN(C(=O)CCNC(=O)C1(C)CC1(F)F)c1cn(-c2cccnc2)nc1Cl (stereo not drawn) [Compound F113, N-(3-((3-chloro-1-(pyridin-3-yl)-1H-pyrazol-4-yl)(ethyl)amino)-3-oxopropyl)-2,2-difluoro-1-methylcyclopropanecarboxamide]
- mortality at 200 ppm [1, 3]: 80 to 100%
- mortality at 200 ppm [2, 4]: 80 to 100%

Structure (SMILES): CCN(C(=O)CCC(=O)NCC1CCCCC1)c1cn(-c2cccnc2)nc1Cl [Compound F15, N1-(3-Chloro-1-(pyridin-3-yl)-1H-pyrazol-4-yl)-N4-(cyclohexylmethyl)-N1-ethylsuccinamide]
- mortality at 200 ppm [1, 3]: 0 to 80%
- mortality at 200 ppm [2, 4]: 80 to 100%

Structure (SMILES): CC(=O)N[C@@H]1C=C[C@H](C(=O)N(C)c2cn(-c3cccnc3)nc2Cl)C1 [Compound F86, (1R,4S)-4-acetamido-N-(3-chloro-1-(pyridin-3-yl)-1H-pyrazol-4-yl)-N-methyl-cyclopent-2-enecarboxamide]
- mortality at 200 ppm [1, 3]: 80 to 100%
- mortality at 200 ppm [2, 4]: 80 to 100%

Structure (SMILES): CCN(C(=O)CCC(=O)N(C)Cc1ccco1)c1cn(-c2cccnc2)nc1Cl [FA77, N1-(3-Chloro-1-(pyridin-3-yl)-1H-pyrazol-4-yl)-N1-ethyl-N4-(furan-2-ylmethyl)-N4-methylsuccinamide]
- mortality at 200 ppm [1, 3]: 0 to 80%
- mortality at 200 ppm [2, 4]: 80 to 100%

Structure (SMILES): CN(C(=O)CCN1CCCCC1=O)c1cn(-c2cccnc2)nc1Cl [Compound F49, N-(3-Chloro-1-(pyridin-3-yl)-1H-pyrazol-4-yl)-N-methyl-3-(2-oxopiperidin-1-yl)propanamide]
- mortality at 200 ppm [1, 3]: 80 to 100%
- mortality at 200 ppm [2, 4]: 80 to 100%

Structure (SMILES): CCN(C(=O)CCC(=O)NCCC(F)(F)F)c1cn(-c2cccnc2)nc1Cl [Compound F73, N1-(3-Chloro-1-(pyridin-3-yl)-1H-pyrazol-4-yl)-N1-ethyl-N4-(3,3,3-trifluoropropyl) succinamide]
- mortality at 200 ppm [1, 3]: 80 to 100%
- mortality at 200 ppm [2, 4]: 80 to 100%

Structure (SMILES): CCN(C(=O)C(C)C/C=N/OCCC1CC1(F)F)c1cn(-c2cccnc2)nc1Cl (stereo not drawn) [FA60, (E)-N-(3-Chloro-1-(pyridin-3-yl)-1H-pyrazol-4-yl)-4-((2-(2,2-difluorocyclopropyl)ethoxy)imino)-N-ethyl-2-methylbutanamide]
- mortality at 200 ppm [1, 3]: 80 to 100%
- mortality at 200 ppm [2, 4]: 80 to 100%

Structure (SMILES): CCN(C(=O)C(C)N(C)C(=O)CC(F)(F)F)c1cn(-c2cccnc2)nc1Cl (stereo not drawn) [Compound F66, N-(1-((3-Chloro-1-(pyridin-3-yl)-1H-pyrazol-4-yl)(ethyl)amino)-1-oxopropan-2-yl)-3,3,3-trifluoro-N-methylpropanamide]
- mortality at 200 ppm [1, 3]: 80 to 100%
- mortality at 200 ppm [2, 4]: 80 to 100%

Structure (SMILES): CCN(C(=O)CC/C(C)=N/Oc1cccc(C(F)(F)F)n1)c1cn(-c2cccnc2)nc1Cl [Compound F59, (E/Z)-N-(3-Chloro-1-(pyridin-3-yl)-1H-pyrazol-4-yl)-N-ethyl-4-(((6-(trifluoromethyl)pyridin-2-yl)oxy)imino)pentanamide]
- mortality at 200 ppm [1, 3]: 80 to 100%
- mortality at 200 ppm [2, 4]: 80 to 100%

Structure (SMILES): CCN(C(=O)CCN(CC(F)F)C(=O)C1(C)CC1(F)F)c1cn(-c2cccnc2)nc1Cl (stereo not drawn) [Compound F35, N-(3-((3-Chloro-1-(pyridin-3-yl)-1H-pyrazol-4-yl)(ethyl)amino)-3-oxopropyl)-N-(2,2-difluoroethyl)-2,2-difluoro-1-methylcyclopropane carboxamide]
- mortality at 200 ppm [1, 3]: 80 to 100%
- mortality at 200 ppm [2, 4]: 80 to 100%

Structure (SMILES): CCN(C(=O)CCC(=O)N(C)CCC(F)(F)F)c1cn(-c2cccnc2)nc1Cl [Compound F108, N1-(3-chloro-1-(pyridin-3-yl)-1H-pyrazol-4-yl)-N1-ethyl-N4-methyl-N4-(3,3,3-trifluoropropyl)succinamide]
- mortality at 200 ppm [1, 3]: 80 to 100%
- mortality at 200 ppm [2, 4]: 80 to 100%

Structure (SMILES): CCN(C(=O)CCNCC(F)F)c1cn(-c2cccnc2)nc1Cl [Compound C14, N-(3-chloro-1-(pyridin-3-yl)-1H-pyrazol-4-yl)-3-((2,2-difluoroethyl)amino)-N-ethylpropanamide]
- mortality at 200 ppm [1, 3]: 80 to 100%
- mortality at 200 ppm [2, 4]: 80 to 100%

Structure (SMILES): CCN(C(=O)CCNC(=O)OC(C)(C)C)c1cn(-c2cccnc2)nc1Cl [Compound F19, tert-Butyl (3-((3-chloro-1-(pyridin-3-yl)-1H-pyrazol-4-yl)(ethyl)amino)-3-oxopropyl)carbamate]
- mortality at 200 ppm [1, 3]: 80 to 100%
- mortality at 200 ppm [2, 4]: 80 to 100%

Structure (SMILES): CCN(C(=O)CCC(=O)NCCF)c1cn(-c2cccnc2)nc1Cl [Compound F43, N1-(3-Chloro-1-(pyridin-3-yl)-1H-pyrazol-4-yl)-N1-ethyl-N4-(2-fluoroethyl)succinamide]
- mortality at 200 ppm [1, 3]: 0 to 80%
- mortality at 200 ppm [2, 4]: 80 to 100%

Structure (SMILES): CCN(C(=O)C(C)N(C)C(C)=O)c1cn(-c2cccnc2)nc1Cl (stereo not drawn) [Compound F96, N-(3-Chloro-1-(pyridin-3-yl)-1H-pyrazol-4-yl)-N-ethyl-2-(N-methylacetamido)propanamide]
- mortality at 200 ppm [1, 3]: 80 to 100%
- mortality at 200 ppm [2, 4]: 80 to 100%

Structure (SMILES): CC(=O)N[C@H]1C=C[C@@H](C(=O)N(C)c2cn(-c3cccnc3)nc2Cl)C1 [Compound F24, (1S,4R)-4-acetamido-N-(3-chloro-1-(pyridin-3-yl)-1H-pyrazol-4-yl)-N-methyl-cyclopent-2-enecarboxamide]
- mortality at 200 ppm [1, 3]: 80 to 100%
- mortality at 200 ppm [2, 4]: 80 to 100%

Structure (SMILES): CCN(C(=O)CCC(=O)N(C)CC#N)c1cn(-c2cccnc2)nc1Cl [Compound F55, N1-(3-Chloro-1-(pyridin-3-yl)-1H-pyrazol-4-yl)-N4-(cyanomethyl)-N1-ethyl-N4-methylsuccinamide]
- mortality at 200 ppm [1, 3]: 0 to 80%
- mortality at 200 ppm [2, 4]: 80 to 100%

Structure (SMILES): CCN(C(=O)C(C)OC(=O)CC(F)(F)F)c1cn(-c2cccnc2)nc1Cl (stereo not drawn) [FA74, 1-((3-Chloro-1-(pyridin-3-yl)-1H-pyrazol-4-yl)(ethyl)amino)-1-oxopropan-2-yl 3,3,3-trifluoropropanoate]
- mortality at 200 ppm [1, 3]: 80 to 100%
- mortality at 200 ppm [2, 4]: 0 to 80%

Structure (SMILES): CCN(C(=O)C1CCN(C(=O)OC(C)(C)C)CC1)c1cn(-c2cccnc2)nc1Cl [Compound F110, tert-Butyl 44-(3-chloro-1-(pyridin-3-yl)-1H-pyrazol-4-yl)(ethylcarbamoyl) piperidine-1-carboxylate]
- mortality at 200 ppm [1, 3]: 80 to 100%
- mortality at 200 ppm [2, 4]: 80 to 100%

Structure (SMILES): CCN(C(=O)CCC(=O)N(C)OC)c1cn(-c2cccnc2)nc1Cl [Compound F78, N1-(3-Chloro-1-(pyridin-3-yl)-1H-pyrazol-4-yl)-N1-ethyl-N4-methoxy-N4-methylsuccinamide]
- mortality at 200 ppm [1, 3]: 80 to 100%
- mortality at 200 ppm [2, 4]: 80 to 100%

Structure (SMILES): CCN(C(=O)CC/C(C)=N/OCCCCF)c1cn(-c2cccnc2)nc1Cl [FA20, (E/Z)-N-(3-chloro-1-(pyridin-3-yl)-1H-pyrazol-4-yl)-N-ethyl-4-((4-fluorobutoxy)imino)pentanamide]
- mortality at 200 ppm [1, 3]: 80 to 100%
- mortality at 200 ppm [2, 4]: 80 to 100%

Structure (SMILES): CCN(C(=O)CCNC(=O)Cc1ccc(F)cc1)c1cn(-c2cccnc2)nc1Cl [Compound F46, N-(3-Chloro-1-(pyridin-3-yl)-1H-pyrazol-4-yl)-N-ethyl-3-(2-(4-fluorophenyl)acetamido) propanamide]
- mortality at 200 ppm [1, 3]: 0 to 80%
- mortality at 200 ppm [2, 4]: 80 to 100%

Structure (SMILES): CCN(C(=O)CCNC(=O)C1CCN(C(C)=O)CC1)c1cn(-c2cccnc2)nc1Cl [Compound F112, 1-Acetyl-N-(3-((3-chloro-1-(pyridin-3-yl)-1H-pyrazol-4-yl)(ethyl)amino)-3-oxopropyl)piperidine-4-carboxamide]
- mortality at 200 ppm [1, 3]: 0 to 80%
- mortality at 200 ppm [2, 4]: 80 to 100%

Structure (SMILES): CCN(C(=O)CC/C(C)=N\O)c1cn(-c2cccnc2)nc1Cl [FA46, (Z)-N-(3-Chloro-1-(pyridin-3-yl)-1H-pyrazol-4-yl)-N-ethyl-4-(hydroxyimino)pentanamide]
- mortality at 200 ppm [1, 3]: 0 to 80%
- mortality at 200 ppm [2, 4]: 80 to 100%

Structure (SMILES): CCN(C(=O)CC/C(=N\OCc1ccc(C(F)(F)F)nc1)c1cccs1)c1cn(-c2cccnc2)nc1Cl [FA36, (E)-N-(3-Chloro-1-(pyridin-3-yl)-1H-pyrazol-4-yl)-N-ethyl-4-(thiophen-2-yl)-4-(((6-(trifluoromethyl)pyridin-3-yl)methoxy)imino)butanamide]
- mortality at 200 ppm [1, 3]: 0 to 80%
- mortality at 200 ppm [2, 4]: 0 to 80%

Structure (SMILES): C#CCN(C(=O)CN(C)C(=O)OC(C)(C)C)c1cn(-c2cccnc2)nc1Cl [Compound F23, tert-Butyl (2-((3-chloro-1-(pyridin-3-yl)-1H-pyrazol-4-yl)(prop-2-yn-1-yl)amino)-2-oxoethyl)(methyl) carbamate]
- mortality at 200 ppm ([1]; foliar): 0 to 80%
- mortality at 200 ppm ([2]; foliar): 80 to 100%

Structure (SMILES): CCN(C(=O)CCC1CCN(CCC2CC2(F)F)C1=O)c1cn(-c2cccnc2)nc1Cl (stereo not drawn) [FA62, N-(3-Chloro-1-(pyridin-3-yl)-1H-pyrazol-4-yl)-3-(1-(2-(2,2-difluorocyclopropyl)ethyl)-2-oxopyrrolidin-3-yl)-N-ethylpropanamide]
- mortality at 200 ppm [1, 3]: 80 to 100%
- mortality at 200 ppm [2, 4]: 80 to 100%

Structure (SMILES): CCN(C(=O)CCC(=O)O)c1cn(-c2cccnc2)nc1Cl [Compound C1, 4-((3-chloro-1-(pyridin-3-yl)-1H-pyrazol-4-yl)(ethyl)amino)-4-oxobutanoic acid]
- mortality at 200 ppm [1, 3]: < 0%
- mortality at 200 ppm [2, 4]: 0 to 80%

Structure (SMILES): CN(C(=O)[C@@H]1C=C[C@H](NC(=O)C(F)(F)F)C1)c1cn(-c2cccnc2)nc1Cl [Compound F126, (1S,4R)-N-(3-chloro-1-(pyridin-3-yl)-1H-pyrazol-4-yl)-N-methyl-4-(2,2,2-trifluoroacetamido)cyclopent-2-enecarboxamide]
- mortality at 200 ppm [1, 3]: 0 to 80%
- mortality at 200 ppm [2, 4]: 80 to 100%

Structure (SMILES): CCN(C(=O)CC/C(=N/OCC1CC1(F)F)c1cccs1)c1cn(-c2cccnc2)nc1Cl (stereo not drawn) [FA39, (Z)-N-(3-Chloro-1-(pyridin-3-yl)-1H-pyrazol-4-yl)-4-(((2,2-difluorocyclopropyl)methoxy)imino)-N-ethyl-4-(thiophen-2-yl)butanamide]
- mortality at 200 ppm [1, 3]: 0 to 80%
- mortality at 200 ppm [2, 4]: 0 to 80%
